The values that follow come from patent US8039487B2, “Piperidine-amide derivatives” (Hoffmann-La Roche Inc., priority 2007, dated 2011).

Each structure is given as a SMILES string.

In the assay the target is T1, liver carnitine palmitoyl transferase 1 (L-CPT1) (Homo sapiens, UniProt P50416).
T1 construct: made in house; host or cells: Pichia pastoris strain X-33 (crude cell-free extract)
T1 sequence (P50416 1-773): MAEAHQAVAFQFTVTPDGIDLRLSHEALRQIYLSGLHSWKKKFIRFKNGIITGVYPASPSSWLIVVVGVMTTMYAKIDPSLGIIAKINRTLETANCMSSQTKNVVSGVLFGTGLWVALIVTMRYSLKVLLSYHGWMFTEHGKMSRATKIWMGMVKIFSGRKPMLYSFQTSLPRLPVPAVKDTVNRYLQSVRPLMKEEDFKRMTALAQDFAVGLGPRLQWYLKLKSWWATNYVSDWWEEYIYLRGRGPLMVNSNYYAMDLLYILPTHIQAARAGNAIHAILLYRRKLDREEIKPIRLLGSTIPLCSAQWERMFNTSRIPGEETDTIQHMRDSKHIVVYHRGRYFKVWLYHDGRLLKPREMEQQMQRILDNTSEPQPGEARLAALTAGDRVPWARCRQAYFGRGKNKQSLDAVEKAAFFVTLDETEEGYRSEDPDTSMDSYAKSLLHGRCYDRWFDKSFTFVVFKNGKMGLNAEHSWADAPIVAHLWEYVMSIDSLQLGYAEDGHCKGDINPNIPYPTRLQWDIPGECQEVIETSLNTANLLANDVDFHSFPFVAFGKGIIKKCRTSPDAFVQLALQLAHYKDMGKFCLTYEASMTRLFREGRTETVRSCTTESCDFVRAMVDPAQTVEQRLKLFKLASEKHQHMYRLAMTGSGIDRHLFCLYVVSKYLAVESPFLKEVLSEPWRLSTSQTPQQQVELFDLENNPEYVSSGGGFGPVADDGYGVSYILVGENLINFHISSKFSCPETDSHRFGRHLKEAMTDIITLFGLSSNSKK
Briefly: L-CPT1 inhibition, spectrophotometric CPT activity assay with DTNB (Ellman's reagent). Conditions: human liver CPT1 expressed in P. pastoris, cell extracts; carnitine 500 μM, palmitoyl-CoA 80 μM, DTNB 300 μM, pH 7.4. The assay is classed as biochemical. Here is the method: The following tests were carried out in order to determine the activity of the compounds of the present invention. Background information on the performed assays can be found in: Jackson et al., 1999, Biochem. J. 341, 483-489 and Jackson et al., 2000, J. Biol. Chem. 275, 19560-19566.
Human liver and muscle CPT1 cDNAs and rat CPT2 cDNA were subcloned in pGAPZB or pGAPZA, respectively. These plasmids were used to transform P. pastoris strain X-33 via electroporation after the preparation of electrocompetent cells. High copy number clones were selected where necessary using 0.5 or 1 mg/ml Zeocin. Cultures for activity measurements were induced for 16 h in YPD medium (1% yeast extract, 2% peptone, 2% glucose). Crude cell extracts were prepared by disrupting the cells with glass beads or French Press, depending on fermenter sizes. After centrifugation, the cell-free extracts were resuspended in cell breaking buffer (50 mM Tris, pH7.4, 100 mM KCl, 1 mM EDTA) in the presence of a protease inhibitor cocktail, before aliquoting and freezing at −20° C.
CPT activity was measured using a spectrophotometric assay using 5,5′-dithio-bis-(2-nitrobenzoic acid) (DTNB) also called Ellman's reagent. The HS-CoA released on the formation of acylcarnitine from carnitine (500 μM) and palmitoyl-CoA (80 μM) reduced DTNB (300 μM) forming 5-mercapto-(2-nitrobenzoic acid) which absorbed at 410 nm with a molar extinction coefficient of 13600 M^−1cm^−1. The assay buffer contained 120 mM KCl, 25 mM Tris, pH 7.4, 1 mM EDTA. This assay was used for the identification of selective inhibitors of the liver CPT1 isoform versus the muscle CPT1 and CPT2 isoforms.
For orientation: IC50 means the point on the concentration scale where inhibition reaches its midpoint. `COC(=O)c1ccc(-c2nc([C@H]3CCCCN3C(=O)COc3ccccc3)cs2)cc1` [Example 36, 4-{4-[(R)-1-(2-Phenoxy-acetyl)-piperidin-2-yl]-thiazol-2-yl}-benzoic acid methyl ester] came in with an IC50 of 365 nM.
For the molecule `O=C(COc1ccccc1)N1CCCC[C@@H]1c1nc(-c2ccc(Cl)cc2)cs1` [Example 1, 1-{(R)-2-[4-(4-Chloro-phenyl)-thiazol-2-yl]-piperidin-1-yl}-2-phenoxy-ethanone], the half-inhibitory concentration (IC50) turned out to be 1400 nM.
`O=C(COc1ccccc1)N1CCCC[C@@H]1c1nc(-c2ccc(F)c(F)c2)cs1` [Example 7, 1-{(R)-2-[4-(3,4-Difluoro-phenyl)-thiazol-2-yl]-piperidin-1-yl}-2-phenoxy-ethanone] displayed an IC50 of 286 nM. Compared with the last molecule, the IC50 is about 4.9-fold lower.
As to `CN(C)c1ccc(-c2csc([C@H]3CCCCN3C(=O)COc3ccccc3)n2)cc1` [Example 18, 1-{(R)-2-[4-(4-Dimethylamino-phenyl)-thiazol-2-yl]-piperidin-1-yl}-2-phenoxy-ethanone], half-maximal inhibition (IC50) was put at 420 nM.
The result for `O=C1Cc2cc(-c3csc([C@H]4CCCCN4C(=O)COc4ccccc4)n3)ccc2N1` [Example 14, 5-{2-[(R)-1-(2-Phenoxy-acetyl)-piperidin-2-yl]-thiazol-4-yl}-1,3-dihydro-indol-2-one] reads 65.9 nM.
Consider `Cc1c(-c2csc([C@H]3CCCCN3C(=O)COc3ccccc3)n2)[nH]c2ccccc12` [Example 19, 1-{(R)-2-[4-(3-Methyl-1H-indol-2-yl)-thiazol-2-yl]-piperidin-1-yl}-2-phenoxy-ethanone], for which 330 nM corresponded to half-maximal inhibition (IC50).
The result for `O=C(COc1ccccc1)N1CCCC[C@@H]1c1csc(-c2n[nH]c3ccccc23)n1` [Example 26, 1-{(R)-2-[2-(1H-Indazol-3-yl)-thiazol-4-yl]-piperidin-1-yl}-2-phenoxy-ethanone] reads 130 nM.
`CC(=O)Nc1ccc(-c2csc([C@H]3CCCCN3C(=O)COc3ccccc3)n2)cc1` [Example 15, N-(4-{2-[(R)-1-(2-Phenoxy-acetyl)-piperidin-2-yl]-thiazol-4-yl}-phenyl)-acetamide] showed an IC50 of 32.6 nM.
As for `Cc1ccc(-c2nc([C@H]3CCCCN3C(=O)COc3ccccc3)cs2)cn1` [Example 30, 1-{(R)-2-[2-(6-Methyl-pyridin-3-yl)-thiazol-4-yl]-piperidin-1-yl}-2-phenoxy-ethanone], the figure is 88.7 nM; as for `O=C(O)c1ccc(-c2csc([C@H]3CCCCN3C(=O)COc3ccccc3)n2)cc1` [Example 3, 4-{2-[(R)-1-(2-Phenoxy-acetyl)-piperidin-2-yl]-thiazol-4-yl}-benzoic acid], 129 nM.
As to `O=C(COc1ccccc1)N1CCCC[C@@H]1c1csc(-c2ccncc2)n1` [Example 32, 2-Phenoxy-1-[(R)-2-(2-pyridin-4-yl-thiazol-4-yl)-piperidin-1-yl]-ethanone], the IC50 was 150 nM.
The result for `O=C(O)c1cccc(-c2nc([C@H]3CCCCN3C(=O)COc3ccccc3)cs2)c1` [Example 40, 3-{4-[(R)-1-(2-Phenoxy-acetyl)-piperidin-2-yl]-thiazol-2-yl}-benzoic acid] reads 80.3 nM; that for `O=C(COc1ccccc1)N1CCCC[C@@H]1c1nc(-c2ccc(Cl)nc2)cs1` [Example 22, 1-{(R)-2-[4-(6-Chloro-pyridin-3-yl)-thiazol-2-yl]-piperidin-1-yl}-2-phenoxy-ethanone], 95 nM; that for `O=C(COc1ccccc1)N1CCCC[C@@H]1c1nc(-c2ccccc2)cs1` [Example 2, 2-Phenoxy-1-[(R)-2-(4-phenyl-thiazol-2-yl)-piperidin-1-yl]-ethanone], 268 nM.
In the case of `O=C(COc1ccccc1)N1CCCC[C@@H]1c1csc(C2COc3ccccc3O2)n1` (stereo partly drawn) [Example 38, 1-{(R)-2-[2-(2,3-Dihydro-benzo[1,4]dioxin-2-yl)-thiazol-4-yl]-piperidin-1-yl}-2-phenoxy-ethanone], the IC50 came out at 398 nM. This IC50 and that of the molecule before are within 1.5-fold of each other.
Regarding `O=C(O)c1cccc(-c2csc([C@H]3CCCCN3C(=O)COc3ccccc3)n2)c1` [Example 5, 3-{2-[(R)-1-(2-Phenoxy-acetyl)-piperidin-2-yl]-thiazol-4-yl}-benzoic acid], it took 33.5 nM to reach half-maximal inhibition (IC50).
The result for `O=C(COc1ccccc1)N1CCCC[C@@H]1c1nc(-c2ccccn2)cs1` [Example 6, 2-Phenoxy-1-[(R)-2-(4-pyridin-2-yl-thiazol-2-yl)-piperidin-1-yl]-ethanone] reads 19.6 nM; that for `COC(=O)c1cccc(-c2csc([C@H]3CCCCN3C(=O)COc3ccccc3)n2)n1` [Example 13, 6-{2-[(R)-1-(2-Phenoxy-acetyl)-piperidin-2-yl]-thiazol-4-yl}-pyridine-2-carboxylic acid methyl ester], 42.4 nM; that for `N#Cc1ccc(-c2csc([C@H]3CCCCN3C(=O)COc3ccccc3)n2)cc1` [Example 20, 4-{2-[(R)-1-(2-Phenoxy-acetyl)-piperidin-2-yl]-thiazol-4-yl}-benzonitrile], 40.5 nM.
`O=C(COc1ccccc1)N1CCCC[C@@H]1c1csc(-c2ccccn2)n1` [Example 34, 2-Phenoxy-1-[(R)-2-(2-pyridin-2-yl-thiazol-4-yl)-piperidin-1-yl]-ethanone]: 176 nM corresponded to half-maximal inhibition (IC50).
`O=C(COc1ccccc1)N1CCCC[C@@H]1c1nc(-c2ccncc2)cs1` [Example 10, 2-Phenoxy-1-[(R)-2-(4-pyridin-4-yl-thiazol-2-yl)-piperidin-1-yl]-ethanone]: 68 nM corresponded to half-maximal inhibition (IC50). Against the preceding molecule, the IC50 is about 2.6-fold lower.
As for `COC(=O)c1cccc(-c2nc([C@H]3CCCCN3C(=O)COc3ccccc3)sc2C)c1` [Example 45, 3-{5-Methyl-2-[(R)-1-(2-phenoxy-acetyl)-piperidin-2-yl]-thiazol-4-yl}-benzoic acid methyl ester], the figure is 300 nM; as for `O=C(COc1ccccc1)N1CCCC[C@@H]1c1csc(-c2cccnc2)n1` [Example 31, 2-Phenoxy-1-[(R)-2-(2-pyridin-3-yl-thiazol-4-yl)-piperidin-1-yl]-ethanone], 56.2 nM; as for `O=C(COc1ccccc1)N1CCCC[C@@H]1c1csc(-c2ccc(C(F)(F)F)cn2)n1` [Example 28, 2-Phenoxy-1-{(R)-2-[2-(5-trifluoromethyl-pyridin-2-yl)-thiazol-4-yl]-piperidin-1-yl}-ethanone], 935 nM.
As for `O=C(O)c1ccc(-c2nc([C@H]3CCCCN3C(=O)COc3ccccc3)cs2)cc1` [Example 41, 4-{4-[(R)-1-(2-Phenoxy-acetyl)-piperidin-2-yl]-thiazol-2-yl}-benzoic acid], the IC50 stood at 296 nM. This IC50 is about 3.2-fold lower than that of the molecule before.
For the molecule `O=C(COc1ccccc1)N1CCCC[C@@H]1c1csc(Cc2ccc(Cl)cc2)n1` [Example 37, 1-{(R)-2-[2-(4-Chloro-benzyl)-thiazol-4-yl]-piperidin-1-yl}-2-phenoxy-ethanone], half-maximal inhibition (IC50) required 725 nM.
The result for `N#Cc1cccc(-c2csc([C@H]3CCCCN3C(=O)COc3ccccc3)n2)c1` [Example 21, 3-{2-[(R)-1-(2-Phenoxy-acetyl)-piperidin-2-yl]-thiazol-4-yl}-benzonitrile] reads 65 nM; that for `COc1ccc(-c2nc([C@H]3CCCCN3C(=O)COc3ccccc3)cs2)cn1` [Example 33, 1-{(R)-2-[2-(6-Methoxy-pyridin-3-yl)-thiazol-4-yl]-piperidin-1-yl}-2-phenoxy-ethanone], 79.4 nM.
Molecule `O=C(COc1ccccc1)N1CCCC[C@@H]1c1csc(-c2cnccn2)n1` [Example 29, 2-Phenoxy-1-[(R)-2-(2-pyrazin-2-yl-thiazol-4-yl)-piperidin-1-yl]-ethanone] registered an IC50 of 224 nM.
`O=C(COc1ccccc1)N1CCCC[C@@H]1c1nc(-c2ccc(OC(F)(F)F)cc2)cs1` [Example 4, 2-Phenoxy-1-{(R)-2-[4-(4-trifluoromethoxy-phenyl)-thiazol-2-yl]-piperidin-1-yl}-ethanone] came in with a 50% inhibitory concentration (IC50) of 798 nM.
